Values joined by “and” are separate entries in the source; they are usually repeats but may differ in a detail not shown here. Equal entries are not always repeated. Inconclusive results and toxic doses are left out.

The subject of the test is L1210 leukemia ip in BDF1 mice, survival T/C. Nature of the test: NCI In Vivo Anticancer Drug Screen. Data for tumor model L1210 Leukemia (intraperitoneal) in B6D2F1 (BDF1) mice. Conditions: endpoint: mean survival time, higher = longer survival. In a few lines: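 Tumor was transplanted into mice, which were then dosed with test compound or vehicle alone. Survival was recorded for each group, and the treated figure was expressed relative to the control figure.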

Where [1] appears, read: dose: 100.0 mg/kg/injection, schedule: Q04DX003 (ip), vehicle: saline with Tween-80.
The mark [2] stands for this setting: dose: 400.0 mg/kg/injection, schedule: Q04DX003 (ip), vehicle: saline with Tween-80.
The mark [3] stands for this setting: dose: 100.0 mg/kg/injection, schedule: Q01DX009 (ip), vehicle: Klucel (hydroxypropylcellulose) (HPC).
Setting [4] is: dose: 200.0 mg/kg/injection, schedule: Q01DX009 (ip), vehicle: Klucel (hydroxypropylcellulose) (HPC).
Setting [5] is: dose: 200.0 mg/kg/injection, schedule: Q04DX003 (ip), vehicle: Klucel (hydroxypropylcellulose) (HPC).
Setting [6] is: dose: 200.0 mg/kg/injection, schedule: Q04DX003 (ip), vehicle: saline with Tween-80.
Where [7] appears, read: dose: 100.0 mg/kg/injection, schedule: Q01DX009 (ip), vehicle: saline with Tween-80.
The mark [8] stands for this setting: dose: 200.0 mg/kg/injection, schedule: Q01DX009 (ip), vehicle: saline with Tween-80.
Where [9] appears, read: dose: 400.0 mg/kg/injection, schedule: Q01DX009 (ip), vehicle: saline with Tween-80.
Setting [10] is: dose: 100.0 mg/kg/injection, schedule: Q04DX003 (ip), vehicle: Klucel (hydroxypropylcellulose) (HPC).
Setting [11] is: dose: 400.0 mg/kg/injection, schedule: Q04DX003 (ip), vehicle: Klucel (hydroxypropylcellulose) (HPC).
Setting [12] is: dose: 400.0 mg/kg/injection, schedule: Q01DX009 (ip), vehicle: Klucel (hydroxypropylcellulose) (HPC).

Regarding `COc1cc(OC)c(/C=C2\N=C(c3ccccc3)OC2=O)c(OC)c1`, the T/C (dose: 100.0 mg/kg/injection, schedule: Q04DX002 (ip), vehicle: other) is 91 % of control; the T/C (dose: 200.0 mg/kg/injection, schedule: Q04DX002 (ip), vehicle: other) is 102 % of control; the T/C (dose: 400.0 mg/kg/injection, schedule: Q04DX002 (ip), vehicle: other) was 88 % of control.

As to `FC(F)(F)c1cccc(P(c2cccc(C(F)(F)F)c2)c2ccccc2C(F)(F)F)c1`, the T/C by setting is: under setting [1], 95 % of control; under setting [2], 87 % of control.

Turning to `Nc1nc(=S)c2[nH]c(N=Nc3ccc(S(N)(=O)=O)cc3)nc2[nH]1`, the T/C by setting is: (dose: 50.0 mg/kg/injection, schedule: Q01DX009 (ip), vehicle: Klucel (hydroxypropylcellulose) (HPC)) 97 % of control; (dose: 50.0 mg/kg/injection, schedule: Q04DX003 (ip), vehicle: Klucel (hydroxypropylcellulose) (HPC)) 151 % of control; under setting [3], 100 % of control; under setting [4], 100 % of control; under setting [5], 94 % of control.

As for `CC(=O)OC(C(=O)NC(CC(C)C)C(=O)O)c1ccccc1` (centres undefined), the T/C runs as follows: (dose: 100.0 mg/kg/injection, schedule: Q01DX001 (ip), vehicle: acetone) 98 % of control; (dose: 200.0 mg/kg/injection, schedule: Q01DX001 (ip), vehicle: acetone) 94 % of control; (dose: 400.0 mg/kg/injection, schedule: Q01DX001 (ip), vehicle: acetone) 98 % of control.

As to `O=C(Nc1cccc(Cl)c1)SCCSC(=O)Nc1cccc(Cl)c1`, the T/C is 88 % of control (dose: 100.0 mg/kg/injection, schedule: Q01DX001 (ip), vehicle: saline with Tween-80); 98 % of control under setting [1]; 93 % of control (dose: 200.0 mg/kg/injection, schedule: Q01DX001 (ip), vehicle: saline with Tween-80); 87 % of control under setting [6]; 88 % of control under setting [2].

With `Br/C(=N\Nc1nn[nH]n1)c1ccccc1`, the T/C runs as follows: under setting [7], 93 % of control; under setting [8], 98 % of control; under setting [9], 95 % of control.

As for `CC(C(=O)NN)C(C)(C)O` (centres undefined), the T/C was 97 % of control (dose: 100.0 mg/kg/injection, schedule: Q04DX002 (ip), vehicle: Klucel (hydroxypropylcellulose) (HPC)); 94 % of control (dose: 200.0 mg/kg/injection, schedule: Q04DX002 (ip), vehicle: Klucel (hydroxypropylcellulose) (HPC)); 101 % of control (dose: 400.0 mg/kg/injection, schedule: Q04DX002 (ip), vehicle: Klucel (hydroxypropylcellulose) (HPC)).

On to `CCOC(=O)C(C)(C)OC(=O)Nc1ccccc1`, for which the T/C reads like this: under setting [10], 98 % of control; under setting [5], 91 % of control; under setting [11], 98 % of control.

With `CC1(O)CCC2C3CCC4CC(=O)CCC4(C)C3(F)C(O)CC21C` (centres undefined), the T/C by setting is: (dose: 100.0 mg/kg/injection, schedule: Q01DX009 (ip), vehicle: saline) 96 % of control; (dose: 200.0 mg/kg/injection, schedule: Q01DX009 (ip), vehicle: saline) 102 % of control; (dose: 400.0 mg/kg/injection, schedule: Q01DX009 (ip), vehicle: saline) 96 % of control.

With `CCCCN(CCCC)CC(O)c1ccc2cc(Cl)cc(Cl)c2n1` (centres undefined), the T/C runs as follows: (dose: 6.25 mg/kg/injection, schedule: Q01DX009 (ip), vehicle: saline with Tween-80) 94 % of control; (dose: 6.25 mg/kg/injection, schedule: Q04DX003 (ip), vehicle: saline with Tween-80) 98 % of control; (dose: 12.5 mg/kg/injection, schedule: Q01DX009 (ip), vehicle: saline with Tween-80) 98 % of control; (dose: 12.5 mg/kg/injection, schedule: Q04DX003 (ip), vehicle: saline with Tween-80) 95 % of control; (dose: 25.0 mg/kg/injection, schedule: Q01DX009 (ip), vehicle: saline with Tween-80) 98 % of control; (dose: 25.0 mg/kg/injection, schedule: Q04DX003 (ip), vehicle: saline with Tween-80) 95 % of control.

Consider `O=[N+]([O-])c1cccc2cn[nH]c12`, for which the T/C (dose: 25.0 mg/kg/injection, schedule: Q04DX002 (ip), vehicle: saline with Tween-80) was 100 % of control; the T/C (dose: 50.0 mg/kg/injection, schedule: Q04DX002 (ip), vehicle: saline with Tween-80) is 110 % of control; the T/C (dose: 100.0 mg/kg/injection, schedule: Q04DX002 (ip), vehicle: saline with Tween-80) was 107 % of control and 89 % of control.

`COc1ccc(COC(=O)Oc2ccc(C)cc2)cc1`: the T/C is 113 % of control (dose: 100.0 mg/kg/injection, schedule: Q04DX002 (ip), vehicle: saline); 109 % of control (dose: 200.0 mg/kg/injection, schedule: Q04DX002 (ip), vehicle: saline); 98 % of control (dose: 400.0 mg/kg/injection, schedule: Q04DX002 (ip), vehicle: saline).

Regarding `CCCCC(=O)N/N=C/c1ccc(Cl)c(Cl)c1`, the T/C runs as follows: (dose: 100.0 mg/kg/injection, schedule: Q01DX001 (ip), vehicle: carboxymethylcellulose (CMC)) 88 % of control; (dose: 200.0 mg/kg/injection, schedule: Q01DX001 (ip), vehicle: carboxymethylcellulose (CMC)) 110 % of control; (dose: 400.0 mg/kg/injection, schedule: Q01DX001 (ip), vehicle: carboxymethylcellulose (CMC)) 91 % of control.

Turning to `CCC(=O)c1ccc(OC(=O)Nc2ccc(C)c(NC(=O)Oc3ccc(C(=O)CC)cc3)c2)cc1`, the T/C is 107 % of control (dose: 100.0 mg/kg/injection, schedule: Q01DX009 (ip), vehicle: other) and 100 % of control (dose: 200.0 mg/kg/injection, schedule: Q01DX009 (ip), vehicle: other).

For the molecule `CC1OC(O[C@@H]2C=C3CC[C@@H]4[C@H](CC[C@]5(C)[C@@H](c6ccc(=O)oc6)CC[C@]45O)[C@@]3(C)CC2)C(O)C(OC2OC(CO)C(O)C(O)C2O)C1O` (some centres undefined), the T/C was 95 % of control (dose: 1.0 mg/kg/injection, schedule: Q01DX015 (sc), vehicle: steriod suspending solution); 98 % of control (dose: 2.0 mg/kg/injection, schedule: Q01DX015 (sc), vehicle: steriod suspending solution); 96 % of control (dose: 4.0 mg/kg/injection, schedule: Q01DX015 (sc), vehicle: steriod suspending solution); 95 % of control (dose: 5.0 mg/kg/injection, schedule: Q01DX001 (ip), vehicle: saline); 97 % of control (dose: 8.0 mg/kg/injection, schedule: Q01DX015 (sc), vehicle: steriod suspending solution); 106 % of control (dose: 10.0 mg/kg/injection, schedule: Q01DX001 (ip), vehicle: saline). The T/C (dose: 16.0 mg/kg/injection, schedule: Q01DX015 (sc), vehicle: steriod suspending solution) is 103 % of control; the T/C (dose: 20.0 mg/kg/injection, schedule: Q01DX001 (ip), vehicle: saline) was 97 % of control; the T/C (dose: 32.0 mg/kg/injection, schedule: Q01DX015 (sc), vehicle: steriod suspending solution) is 100 % of control.

In the case of `O=C1CN(CN2CCCCC2)C(=O)CN1CN1CCCCC1`, the T/C under setting [3] is 91 % of control; the T/C under setting [10] was 109 % of control; the T/C under setting [4] was 95 % of control; the T/C under setting [5] was 106 % of control; the T/C under setting [11] was 90 % of control.

With `O=C1OC(c2ccc([N+](=O)[O-])cc2)=N/C1=C\c1cc(Br)ccc1O`, the T/C is 91 % of control under setting [3], 96 % of control under setting [4] and 93 % of control under setting [12].

As for `CC[Si](CC)(c1ccccc1)N1CC1`, the T/C was 97 % of control (dose: 25.0 mg/kg/injection, schedule: Q01DX001 (ip), vehicle: carboxymethylcellulose (CMC)) and 101 % of control (dose: 50.0 mg/kg/injection, schedule: Q01DX001 (ip), vehicle: carboxymethylcellulose (CMC)).

With `CNc1ccc(C(=O)O)cc1I`, the T/C by setting is: under setting [3], 100 % of control; under setting [10], 94 % of control; under setting [4], 94 % of control; under setting [5], 103 % of control; under setting [12], 94 % of control; under setting [11], 96 % of control.

On to `CCCCCCCCCCCCCCCCOc1ccccc1C(C)=O`, for which the T/C by setting is: under setting [7], 92 % of control; under setting [1], 89 % of control; under setting [8], 96 % of control; under setting [6], 98 % of control; under setting [9], 93 % of control; under setting [2], 93 % of control.

On to `CC(=O)c1cccc(NC(=O)c2cccc(F)c2)c1`, for which the T/C reads like this: under setting [3], 95 % of control; under setting [4], 97 % of control; under setting [12], 95 % of control.

For `Cc1c(Cl)c(N(C)S(=O)(=O)c2ccccc2)c(C)c(Cl)c1N(C)S(=O)(=O)c1ccccc1`, the T/C by setting is: under setting [10], 103 % of control; under setting [5], 96 % of control; under setting [11], 95 % of control.

The record behind these values is PubChem BioAssay AID248 (DTP/NCI, 2004).
